How the values were obtained:
[1] = biological target: T1, human JAK1 (Homo sapiens, UniProt P23458); test: JAK1 inhibition assay (polyGT substrate / Ulight-JAK1 peptide); type: biochemical; conditions: recombinant human JAK1 catalytic domain; polyGT or Ulight-JAK1 peptide assay
T1 construct: catalytic domain, amino acids 866-1154; catalog number PV4774; purchased Invitrogen PV4774
Method: 1.1 JAK1 Inhibition Assay
1.1.1 JAK1 Assay polyGT Substrate
After 45 min at 30° C., reactions are stopped by adding of 25 μL/well of 150 mM phosphoric acid. […] Plates are washed 6 times with 300 μL per well of a 75 mM phosphoric acid solution and the bottom of the plates is sealed. 40 μL/well of Microscint-20 is added, the top of the plates is sealed and readout is performed using the Topcount (Perkin Elmer). Kinase activity is calculated by subtracting counts per min (cpm) obtained in the presence of a positive control inhibitor (10 μM staurosporine) from cpm obtained in the presence of vehicle. The ability of a test compound to inhibit this activity is determined as:
(§1) Percentage inhibition=((cpm determined for sample with test compound present−cpm determined for sample with positive control inhibitor)divided by(cpm determined in the presence of vehicle−cpm determined for sample with positive control inhibitor))*100.
Dose dilution series are prepared for the compounds enabling the testing of dose-response effects in the JAK1 assay and the calculation of the IC50 for each compound.
1.1.2 JAK1 Ulight-JAK1 Peptide Assay
(§2) After 60 min at room temperature, reactions were stopped by adding 20 μL/well of detection mixture (1× detection buffer (Perkin Elmer, catalog number CR97-100C), 0.5 nM Europium-anti-phosphotyrosine (PT66) (Perkin Elmer, catalog number AD0068), 10 mM EDTA). […] Kinase activity was calculated by subtracting relative fluorescence units (RFU) obtained in the presence of a positive control inhibitor (10 μM staurosporine) from RFU obtained in the presence of vehicle. The ability of a test compound to inhibit this activity was determined as:
(§3) Percentage inhibition=((RFU determined for sample with test compound present−RFU determined for sample with positive control inhibitor)divided by(RFU determined in the presence of vehicle−RFU determined for sample with positive control inhibitor))*100.
(§4) Dose dilution series were prepared for the compounds enabling the testing of dose-response effects in the JAK1 assay and the calculation of the IC50 for the compound. Each compound is routinely tested at concentration of 20 μM followed by a 1/5 serial dilution, 10 points in a final concentration of 1% DMSO. […] The data are expressed as the average IC50 from the assays±standard error of the mean.

[2] = biological target: T2, human JAK2 (Homo sapiens, UniProt O60674); test: JAK2 inhibition assay (polyGT substrate / Ulight-JAK1 peptide); type: biochemical; conditions: recombinant human JAK2 catalytic domain; polyGT or Ulight-JAK1 peptide assay
T2 construct: catalytic domain (amino acids 808-1132; catalog number PV4210); GST; purchased Invitrogen PV4210
T2 sequence (O60674 808-1132): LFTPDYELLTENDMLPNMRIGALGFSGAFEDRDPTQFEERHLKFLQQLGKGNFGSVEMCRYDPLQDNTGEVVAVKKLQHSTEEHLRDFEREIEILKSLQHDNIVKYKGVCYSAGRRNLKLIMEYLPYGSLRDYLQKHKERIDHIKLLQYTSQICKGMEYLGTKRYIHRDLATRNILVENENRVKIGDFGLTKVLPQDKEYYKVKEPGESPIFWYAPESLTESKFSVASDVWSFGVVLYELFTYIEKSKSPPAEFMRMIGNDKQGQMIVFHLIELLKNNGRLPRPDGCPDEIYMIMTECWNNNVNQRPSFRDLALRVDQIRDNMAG
Method: 1.2 JAK2 Inhibition Assay
1.2.1 JAK2 Assay polyGT Substrate
0.025 mU of JAK2 is incubated with 2.5 μg polyGT substrate (Sigma catalog number P0275) in kinase reaction buffer (5 mM MOPS pH 7.5, 9 mM MgAc, 0.3 mM EDTA, 0.06% Brij and 0.6 mM DTT, 1 μM non-radioactive ATP, 0.25 μCi ^33P-gamma-ATP (GE Healthcare, catalog number AH9968) final concentrations) with or without 5 μL containing test compound or vehicle (DMSO, 1% final concentration), in a total volume of 25 μL, in a polypropylene 96-well plate (Greiner, V-bottom). After 90 min at 30° C., reactions are stopped by adding of 25 μL/well of 150 mM phosphoric acid. […] Plates are washed 6 times with 300 μL per well of a 75 mM phosphoric acid solution and the bottom of the plates is sealed. 40 μL/well of Microscint-20 is added, the top of the plates is sealed and readout is performed using the Topcount (Perkin Elmer). Kinase activity is calculated by subtracting counts per min (cpm) obtained in the presence of a positive control inhibitor (10 μM staurosporine) from cpm obtained in the presence of vehicle. The ability of a test compound to inhibit this activity is determined as:
as §1
Dose dilution series are prepared for the compounds enabling the testing of dose-response effects in the JAK2 assay and the calculation of the IC50 for each compound.
1.2.2 JAK2 Ulight-JAK1 Peptide Assay
as §2, §3
as §4, with “are” for “were”, “compound” for “the compounds”, “JAK2” for “JAK1”

T1 sequence (P23458 866-1154): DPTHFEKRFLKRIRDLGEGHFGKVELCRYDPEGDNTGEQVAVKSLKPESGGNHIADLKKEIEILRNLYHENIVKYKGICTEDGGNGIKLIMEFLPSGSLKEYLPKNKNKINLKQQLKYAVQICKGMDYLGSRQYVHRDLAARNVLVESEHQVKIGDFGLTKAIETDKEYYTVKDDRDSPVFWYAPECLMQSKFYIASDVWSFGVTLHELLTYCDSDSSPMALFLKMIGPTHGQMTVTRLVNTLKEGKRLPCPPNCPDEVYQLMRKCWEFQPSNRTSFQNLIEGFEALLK

Row | SMILES | IC50 [1] [nM] | IC50 [2] [nM]
1 | CCN(c1ccc2ocnc2c1)c1cc2c(cn1)ncn2C [Compound 3, N-ethyl-N-(1-methyl-1H-imidazo[4,5-c]pyridin-6-yl)benzo[d]oxazol-5-amine] | > 1000 | > 1000
2 | CCN(c1ccc2oc(C)nc2c1)c1cc2c(cn1)ncn2C [Compound 6, N-ethyl-2-methyl-N-(1-methyl-1H-imidazo[4,5-c]pyridin-6-yl)benzo[d]oxazol-5-amine] | 501 to 1000 | > 1000
3 | CCN(c1ccc2c(ccn2C)c1)c1cc2c(cn1)ncn2C [Compound 8, N-ethyl-1-methyl-N-(1-methyl-1H-indol-5-yl)-1H-imidazo[4,5-c]pyridin-6-amine] | > 1000 | 101 to 500
4 | CCN(c1cccc(C(=O)c2ccccc2)c1)c1cc2c(cn1)ncn2C [Compound 9, (3-(ethyl(1-methyl-1H-imidazo[4,5-c]pyridin-6-yl)amino)phenyl)(phenyl) methanone] | > 1000 | > 1000
5 | CCN(c1ccc2sc(C)nc2c1)c1cc2c(cn1)ncn2C [Compound 10, N-ethyl-2-methyl-N-(1-methyl-1H-imidazo[4,5-c]pyridin-6-yl)benzo[d]thiazol-5-amine] | > 1000 | > 1000
6 | CCN(c1cccc(Oc2ccccc2)c1)c1cc2c(cn1)ncn2C [Compound 11, N-ethyl-1-methyl-N-(3-phenoxyphenyl)-1H-imidazo[4,5-c]pyridin-6-amine] | 101 to 500 | > 1000
7 | CCN(c1cccc(C(O)c2ccccc2)c1)c1cc2c(cn1)ncn2C (stereo not shown) [Compound 12, (3-(ethyl(1-methyl-1H-imidazo[4,5-c]pyridin-6-yl)amino)phenyl)(phenyl) MeOH] | 501 to 1000 | > 1000
8 | CN(c1cc2c(cn1)ncn2C)c1ccccc1C(F)(F)F [Compound 36, N,1-dimethyl-N-(2-(trifluoromethyl)phenyl)-1H-imidazo[4,5-c]pyridin-6-amine] | > 1000 | > 1000
9 | CCc1ccccc1N(c1cc2c(cn1)ncn2C)C1CC1 [Compound 37, N-Cyclopropyl-N-(2-ethylphenyl)-1-methyl-1H-imidazo[4,5-c]pyridin-6-amine] | 101 to 500 | > 1000
10 | Cc1cc(C(=O)O)ccc1N(C)c1cc2c(cn1)ncn2C [Compound 40, 3-methyl-4-(methyl(1-methyl-1H-imidazo[4,5-c]pyridin-6-yl)amino)benzoic acid] | > 1000 | > 1000
11 | CN(c1cc2c(cn1)ncn2C)c1ccccc1C#N [Compound 41, 2-(Methyl(1-methyl-1H-imidazo[4,5-c]pyridin-6-yl)amino)benzonitrile] | > 1000 | > 1000
12 | COc1ccc(COc2cccc(N(C)c3cc4c(cn3)ncn4C)c2C)cc1 [Compound 44, N-(3-(4-methoxybenzyloxy)-2-methylphenyl)-N,1-dimethyl-1H-imidazo[4,5-c]pyridin-6-amine] | 501 to 1000 | > 1000
13 | CN(c1cc2c(cn1)ncn2C)c1ccccc1OC(F)(F)F [Compound 49, N,1-dimethyl-N-(2-(trifluoromethoxy)phenyl)-1H-imidazo[4,5-c]pyridin-6-amine] | 501 to 1000 | > 1000
14 | COCCNC(=O)c1ccc(N(C)c2cc3c(cn2)ncn3C)c(C)c1 [Compound 50, N-(2-methoxyethyl)-3-methyl-4-(methyl(1-methyl-1H-imidazo[4,5-c]pyridin-6-yl)amino)benzamide] | > 1000 | > 1000
15 | Cc1cc(OCC(=O)N(C)C)ccc1N(C)c1cc2c(cn1)ncn2C [Compound 51, N,N-dimethyl-2-(3-methyl-4-(methyl(1-methyl-1H-imidazo[4,5-c]pyridin-6-yl)amino)phenoxy)acetamide] | > 1000 | > 1000

Other lines, results leading:

Row | IC50 [1] [nM] | IC50 [2] [nM] | SMILES
16 | 501 to 1000 | > 1000 | CCN(c1ccc(CO)cc1)c1cc2c(cn1)ncn2C [Compound 13, (4-(ethyl(1-methyl-1H-imidazo[4,5-c]pyridin-6-yl)amino)phenyl)MeOH]
17 | > 1000 | > 1000 | CN(c1ccc(OCc2ccccc2)cc1)c1cc2c(cn1)ncn2C [Compound 14, N-(4-(benzyloxy)phenyl)-N,1-dimethyl-1H-imidazo[4,5-c]pyridin-6-amine]
18 | 101 to 500 | > 1000 | Cc1ccccc1N(C)c1cc2c(cn1)ncn2C [Compound 15, N,1-dimethyl-N-o-tolyl 1H-imidazo[4,5-c]pyridin-6-amine]
19 | 501 to 1000 | > 1000 | CN(c1ccc(OCC2CCCO2)cc1)c1cc2c(cn1)ncn2C (stereo not shown) [Compound 18, N,1-dimethyl-N-(4-((tetrahydrofuran-2-yl)methoxy)phenyl)-1H-imidazo[4,5-c]pyridin-6-amine]
20 | 101 to 500 | > 1000 | CN(c1ccc(OCCO)cc1)c1cc2c(cn1)ncn2C [Compound 19, 2-(4-(methyl(1-methyl-1H-imidazo[4,5-c]pyridin-6-yl)amino)phenoxy)ethanol]
21 | > 1000 | > 1000 | Cc1noc(C)c1COc1ccc(N(C)c2cc3c(cn2)ncn3C)cc1 [Compound 20, N-(4-((3,5-dimethylisoxazol-4-yl)methoxy)phenyl)-N,1-dimethyl-1H-imidazo[4,5-c]pyridin-6-amine]
22 | 501 to 1000 | > 1000 | CC(C)CCOc1ccc(N(C)c2cc3c(cn2)ncn3C)cc1 [Compound 21, N-(4-(isopentyloxy)phenyl)-N,1-dimethyl-1H-imidazo[4,5-c]pyridin-6-amine]
23 | 101 to 500 | 501 to 1000 | CCCOc1ccc(N(C)c2cc3c(cn2)ncn3C)cc1 [Compound 22, N,1-dimethyl-N-(4-propoxyphenyl)-1H-imidazo[4,5-c]pyridin-6-amine]
24 | 501 to 1000 | > 1000 | CCOCCOc1ccc(N(C)c2cc3c(cn2)ncn3C)cc1 [Compound 23, N-(4-(2-ethoxyethoxy)phenyl)-N,1-dimethyl-1H-imidazo[4,5-c]pyridin-6-amine]
25 | 101 to 500 | > 1000 | CN(c1ccc(OCC2CC2)cc1)c1cc2c(cn1)ncn2C [Compound 24, N-(4-(cyclopropylmethoxy)phen-yl)-N,1-dimethyl-1H-imidazo[4,5-c]pyridin-6-amine]
26 | 101 to 500 | > 1000 | COc1ccccc1N(C)c1cc2c(cn1)ncn2C [Compound 42, N-(2-methoxyphenyl)-N,1-dimethyl-1H-imidazo[4,5-c]pyridin-6-amine]
27 | 101 to 500 | > 1000 | COc1ccc(N(C)c2cc3c(cn2)ncn3C)c(C)c1 [Compound 45, N-(4-Methoxy-2-methylphenyl)-N,1-dimethyl-1H-imidazo[4,5-c]pyridin-6-amine]
28 | > 1000 | > 1000 | Cc1c(O)cccc1N(C)c1cc2c(cn1)ncn2C [Compound 46, 2-methyl-3-(methyl(1-methyl-1H-imidazo[4,5-c]pyridin-6-yl)amino)phenol]
29 | 501 to 1000 | > 1000 | Cc1cc(OCCN2CCCC2)ccc1N(C)c1cc2c(cn1)ncn2C [Compound 52, N,1-dimethyl-N-(2-methyl-4-(2-(pyrrolidin-1-yl)ethoxy)phenyl)-1H-imidazo[4,5-c]pyridin-6-amine]
